According to PubChem BioAssay AID743351 (Broad Institute, 2014):
The source made the active and inactive calls. The rule behind the calls is not given here.

Each compound was assayed on M. tuberculosis BioA-TetON overexpression strain, growth IC90 (assay: PubChem AID 743351).
For `CC(=O)c1ccc(N2CCN(C(=O)c3ccccc3F)CC2)cc1`, the IC90 was > 50 µM (inactive). `CC(=O)c1ccc(N2CCN(C(=O)c3ccc4c(c3)OCO4)CC2)cc1` was tested, and the IC90 was > 50 µM (inactive). `CC(C)NC(=O)N1CC[C@@H]2[C@@H](CO)N(C)c3ccc(-c4ccc(F)cc4)cc3[C@@H]21` was tested, and the IC90 was > 50 µM (inactive). In the case of `CC(=O)c1ccc(N2CCN(C(=O)c3ccc4c(c3)OCO4)[C@H](C)C2)cc1`, the IC90 is reported as > 50 µM (inactive). In the case of `CC(=O)c1ccc(NCCNC(=O)c2ccc3c(c2)OCO3)cc1`, the IC90 is reported as > 50 µM (inactive). In the case of `CCCNC(=O)N1CC[C@@H]2[C@@H](CO)N(C)c3ccc(-c4ccc(F)cc4)cc3[C@@H]21`, the IC90 is reported as > 50 µM (inactive). For `CN1c2ccc(-c3cccc(F)c3)cc2[C@H]2[C@H](CCN2C(=O)CCCCCCC(=O)O)[C@H]1CO`, the IC90 was > 50 µM (inactive). In the case of `CN1c2ccc(-c3ccc(F)cc3)cc2[C@H]2[C@H](CCN2C(=O)Cc2ccccn2)[C@H]1CO`, the IC90 is reported as > 50 µM (inactive). In the case of `CC(=O)c1ccc(N2CC3(CN(C(=O)c4ccc5c(c4)OCO5)C3)C2)cc1`, the IC90 is reported as > 50 µM (inactive). `COCC(=O)N1CC[C@@H]2[C@@H](CO)N(C)c3ccc(-c4cccc(F)c4)cc3[C@@H]21` was tested, and the IC90 was > 50 µM (inactive). For `CNC(=O)c1ccc(N2CCN(C(=O)c3ccc4c(c3)OCO4)CC2)cc1`, the IC90 was > 50 µM (inactive). In the case of `COc1ccc(NC(=O)N2CC[C@@H]3[C@@H](CO)N(C)c4ccc(-c5ccc(F)cc5)cc4[C@@H]32)cc1`, the IC90 is reported as > 50 µM (inactive). `CN(C)C(=O)c1ccc(N2CCN(C(=O)c3ccc4c(c3)OCO4)CC2)cc1` was tested, and the IC90 was > 50 µM (inactive). With `CN1c2ccc(-c3cccc(F)c3)cc2[C@H]2[C@H](CCN2C(=O)Cc2cccnc2)[C@H]1CO` the IC90 was > 50 µM (inactive). For `COc1ccc(NC(=O)N2CC[C@@H]3[C@@H](CO)N(C)c4ccc(-c5cccc(F)c5)cc4[C@@H]32)cc1`, the IC90 was > 50 µM (inactive). `CN1c2ccc(-c3cccc(F)c3)cc2[C@H]2[C@H](CCN2C(=O)c2ccc3c(c2)OCO3)[C@@H]1CO` was tested, and the IC90 was > 50 µM (inactive). With `CNS(=O)(=O)c1ccc(N2CCN(C(=O)c3ccc4c(c3)OCO4)CC2)cc1` the IC90 was > 50 µM (inactive). In the case of `COc1cccc(NC(=O)N2CC[C@@H]3[C@@H](CO)N(C)c4ccc(-c5cccc(F)c5)cc4[C@@H]32)c1`, the IC90 is reported as > 50 µM (inactive). In the case of `CN1c2ccc(-c3cccc(F)c3)cc2[C@H]2[C@H](CCN2C(=O)CCCCCCN)[C@H]1CO`, the IC90 is reported as > 50 µM (inactive). For `CN1c2ccc(-c3ccc(F)cc3)cc2[C@H]2[C@H](CCN2C(=O)Nc2ccc(F)cc2)[C@H]1CO`, the IC90 was > 50 µM (inactive). In the case of `CCCCCCCC(=O)N1CC[C@@H]2[C@@H](CO)N(C)c3ccc(-c4cccc(F)c4)cc3[C@@H]21`, the IC90 is reported as > 50 µM (inactive). `CN1c2ccc(-c3cccc(F)c3)cc2[C@H]2[C@H](CCN2C(=O)Cc2ccccc2)[C@H]1CO` was tested, and the IC90 was > 50 µM (inactive). For `COc1ccccc1NC(=O)N1CC[C@@H]2[C@@H](CO)N(C)c3ccc(-c4ccc(F)cc4)cc3[C@@H]21`, the IC90 was > 50 µM (inactive). With `CN1c2ccc(-c3ccc(F)cc3)cc2[C@H]2[C@H](CCN2C(=O)Cc2cccnc2)[C@H]1CO` the IC90 was > 50 µM (inactive). For `CN1c2ccc(-c3ccc(F)cc3)cc2[C@H]2[C@H](CCN2C(=O)Nc2cc(F)ccc2F)[C@H]1CO`, the IC90 was > 50 µM (inactive). In the case of `COC(=O)CCCCCCC(=O)N1CC[C@@H]2[C@@H](CO)N(C)c3ccc(-c4cccc(F)c4)cc3[C@@H]21`, the IC90 is reported as > 50 µM (inactive). In the case of `CN1c2ccc(-c3cccc(F)c3)cc2[C@H]2[C@H](CCN2C(=O)Nc2ccccc2F)[C@H]1CO`, the IC90 is reported as > 50 µM (inactive). `CN1c2ccc(-c3cccc(F)c3)cc2[C@@H]2[C@@H](CCN2C(=O)c2ccc3c(c2)OCO3)[C@H]1CO` was tested, and the IC90 was > 50 µM (inactive). For `COc1ccccc1NC(=O)N1CC[C@@H]2[C@@H](CO)N(C)c3ccc(-c4cccc(F)c4)cc3[C@@H]21`, the IC90 was > 50 µM (inactive). In the case of `CCC(=O)N1CC[C@@H]2[C@@H](CO)N(C)c3ccc(-c4ccc(F)cc4)cc3[C@@H]21`, the IC90 is reported as > 50 µM (inactive). `COc1ccccc1C(=O)N1CCN(c2ccc(C(C)=O)cc2)CC1` was tested, and the IC90 was > 50 µM (inactive). In the case of `CC(C)NC(=O)N1CC[C@@H]2[C@@H](CO)N(C)c3ccc(-c4cccc(F)c4)cc3[C@@H]21`, the IC90 is reported as > 50 µM (inactive). For `CC(=O)c1ccc(N2CCN(C(=O)c3ccccc3Cl)CC2)cc1`, the IC90 was > 50 µM (inactive). In the case of `CN1c2ccc(-c3cccc(F)c3)cc2[C@@H]2[C@@H](CCN2C(=O)c2ccc3c(c2)OCO3)[C@@H]1CO`, the IC90 is reported as > 50 µM (inactive).
